Test results from article PMC6556870 (European Journal of Pharmaceutical Sciences, 2019).

Tests used:
Male Han Wistar rats = test: Clinical signs / tolerability after single IV or PO administration
Description: (§1) Fifteen male Han Wistar rats were obtained from Charles River Laboratories, Margate, UK. Animals were all in the target weight range of 163 to 215 g at dosing. Diet was removed at the end of the working day prior to each dose occasion, and returned 4 h after dosing.
(§2) Each animal received a single administration (Table 2). PO doses were administered by gavage at a nominal dose volume of 5 ml/kg. IV doses were administered via a lateral tail vein, at a nominal dose volume of 2 ml/kg, as a bolus injection. Body weights were recorded the day after arrival and before dose administration and used for calculation of doses. Samples of blood (nominally 150 μl) were collected from the jugular vein of each animal. For PO dosing this was done at 0.25, 0.5, 1, 2, 4, 6, 8 and 24 h post dose. For IV dosing this was at 0.016, 0.083, 0.5, 1, 2, 4, 8 and 24 h post dose. The actual blood collection time was used in the subsequent PK data analysis. Blood was collected into tubes containing the K2EDTA anticoagulant and stored at room temperature. Blood was centrifuged (1500g, 10 min, 4 °C) to produce plasma for analysis and residual blood cells were discarded.
The following results were calculated for each group.

humans = system: humans; design: method as in Knip et al., 2000; settings: human adults, orally; ref Knip et al., 2000; cited from earlier work
in vivo = settings: rat, iv
Description: as §1, §2
Transfer of a 10 μl aliquot into a clean 2 ml […] collection plate • 2. Addition of 25 μl I-B (500 ng/ml). Addition of 25 μl methanol to all blanks • 3. Vortex mix plate (ca. 1 min) • 4. Addition of 80 μl methanol to all wells • 5. Vortex mix plate (ca. 2 min) • 6. Centrifuge 2000g plate for 10 min at room temperature • 7. Transfer 40 μl of supernatant to a clean 1.2 ml 96-well collection plate • 8. Dilute with 160 μl 10 mM of ammonium acetate:ammonium hydroxide (100:0.5 v/v) solution • 9. Vortex mix plate (ca. 2 min) • 10. Complete analysis by LC/MS-MS.

rats = settings: rat, in vivo, cited from earlier work

In the case of `NC(=O)c1cccnc1` [NA, Nicotinamide, reference compound], the “clinical signs associated with administration” value (Male Han Wistar rats; IV or PO, doses up to 120 mg/kg, fifteen male rats) is given as “No clinical signs”, the “adult dose at which NA is a safe therapy” value (humans) is given as “up to 10 g/day” and the “time by which agent is completely cleared / plasma level returns to baseline” value (in vivo; male, Han Wistar) is given as no more than 24 h. For the same compound, the AUC(0-inf) (in vivo; male, Han Wistar, 120 mg/kg) was 774 µg·h/mL, the AUC(0-t) (in vivo; male, Han Wistar, 120 mg/kg) was 573 µg·h/mL and the C0 (in vivo; male, Han Wistar, 120 mg/kg) was 178 µg/mL. For the same compound, the Cmax (in vivo; male, Han Wistar, 120 mg/kg) was 168 µg/mL, the Vd (in vivo; male, Han Wistar, 120 mg/kg) was 0.911 L/kg and the clearance (in vivo; male, Han Wistar, 120 mg/kg) was 2.72 mL/min/kg. The half-life (in vivo; male, Han Wistar, 120 mg/kg, t½) was 240 min, the “safe dose in rats, IP injection” value (rats; ip) was 1000 mg/kg and the “safe dose in rats, subcutaneous injection” value (rats; sc) was 750 mg/kg.

With `[2H]c1cc([2H])c(C(N)=O)cn1` [d2-NA, 4,6-d2-Nicotinamide] the tolerability (Male Han Wistar rats; regardless of route of administration (IV, PO), 20, 80 and 120 mg/kg, rat) was “well tolerated”, the “time by which agent is completely cleared / plasma level returns to baseline” value (in vivo) was no more than 24 h and the C0 (in vivo; 20 mg/kg) was 28,700 ng/ml. The Cl (in vivo; 20 mg/kg) was 586 mL/h/kg, the Vz (in vivo; 20 mg/kg) was 691 mL/kg and the “AUC(0–t)” value (in vivo; 60 mg/kg) was 196,000 h·ng/ml. The “AUC(0–∞)” value (in vivo; 60 mg/kg) was 197,000 h·ng/ml, the C0 (in vivo; 60 mg/kg) was 82,700 ng/ml and the Cl (in vivo; 60 mg/kg) was 307 mL/h/kg. The Cmax (in vivo; 60 mg/kg) was 79,400 ng/ml, the Vz (in vivo; 60 mg/kg) was 963 mL/kg and the t½ (in vivo; 60 mg/kg) was 2.23 h. The C0 (in vivo; 120 mg/kg) was 172,000 ng/ml, the Cl (in vivo; 120 mg/kg) was 262 mL/h/kg and the Vz (in vivo; 120 mg/kg) was 877 mL/kg.
